Laboratory results: PubChem BioAssay (NCI)
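Test compounds were applied to cells in 96-well plates for 48 hours at 5 doses. TGI: concentration producing complete growth inhibition.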 Square brackets hold non-standard residues; d marks the D form. Peptide text beside a SMILES is read from it. Phe(4-NO2) = N[CH](Cc1ccc([N+](=O)[O-])cc1)C(=O)O

How the values were obtained:
Test in all cases: DTP human tumour cell line panel, 48 h
[1] = test system: 786-0 renal
[2] = test system: COLO 205 colon
[3] = test system: DU-145 prostate
[4] = test system: HT29 colon
[5] = test system: IGROV1 ovarian
[6] = test system: K-562 leukemia
[7] = test system: MDA-MB-231 breast
[8] = test system: MOLT-4 leukemia
[9] = test system: OVCAR-5 ovarian
[10] = test system: PC-3 prostate
[11] = test system: SF-268 CNS
[12] = test system: SK-MEL-28 melanoma
[13] = test system: UACC-62 melanoma
[14] = test system: NCI-H522 lung

| SMILES | TGI [1] [µM] | TGI [2] [µM] | TGI [3] [µM] | TGI [4] [µM] | TGI [5] [µM] | TGI [6] [µM] | TGI [7] [µM] | TGI [8] [µM] | TGI [9] [µM] | TGI [10] [µM] | TGI [11] [µM] | TGI [12] [µM] | TGI [13] [µM] | TGI [14] [µM] |
| --- | --- | --- | --- | --- | --- | --- | --- | --- | --- | --- | --- | --- | --- | --- |
| CCOC(OCC)[C@H](N)[C@@H](O)[C@@H](O)[C@H]1COC(C)(C)O1 | > 100 | > 100 | > 100 | > 100 | > 100 | > 100 | > 100 | > 100 | > 100 | > 100 | > 100 | > 100 | > 100 | – |
| CC1(C)CN=C(Nc2ccc(F)c(Cl)c2)S1 | > 100 | > 100 | > 100 | > 100 | > 100 | > 100 | – | > 100 | > 100 | > 100 | > 100 | > 100 | > 100 | > 100 |
| N#Cc1c2ccc([N+](=O)[O-])cc2c(=O)n2c1sc1ccccc12 | > 100 | 37.7 | > 100 | > 100 | – | 29.5 | 49.2 | – | – | 43.9 | > 100 | > 100 | > 100 | – |
| COC(=O)CCC(NC(=O)C(CCC(=O)OC)NC(=O)C(CCC(=O)OC)NC(=O)C(CCC(=O)OC)NC(=O)C(CCC(=O)OC)NC(=O)C(Cc1ccc([N+](=O)[O-])cc1)NC(=O)C(CCC(=O)OC)NC(=O)C(CCC(=O)OC)NC(=O)C(CCC(=O)OC)NC(=O)C(CCC(=O)OC)NC(=O)C(CCC(=O)OC)NC(C)=O)C(N)=O (centres undefined) (Ac-E(OMe)E(OMe)E(OMe)E(OMe)E(OMe)[Phe(4-NO2)]E(OMe)E(OMe)E(OMe)E(OMe)E(OMe)-NH2; configuration not given here) | > 100 | > 100 | > 100 | > 100 | > 100 | – | > 100 | > 100 | > 100 | – | > 100 | > 100 | – | > 100 |
| COc1ccc(OCC(C)(C)O)cc1 | – | > 100 | – | > 100 | > 100 | > 100 | – | > 100 | > 100 | – | > 100 | > 100 | > 100 | – |
| C/C(=N\Nc1nc2ccccc2o1)c1cc2ccccc2cn1 | 6.61 | > 32.7 | 39.7 | – | – | – | 8.75 | > 46.3 | 16.4 | 12 | 2.82 | 48.6 | 2.53 | – |
| CC(c1ccccc1)C(O)S(=O)(=O)O (centres undefined) | > 100 | > 100 | – | > 100 | > 100 | – | – | > 100 | > 100 | – | > 100 | > 100 | > 100 | > 100 |
| C=CCOC1OC(CS(=O)(=O)O)C(OC(C)=O)C(OC(C)=O)C1OC(C)=O (centres undefined) | – | > 100 | > 100 | > 100 | > 100 | > 100 | – | > 100 | > 100 | > 100 | – | > 100 | > 100 | – |
| CN(C(=O)c1ccc(Cl)cc1)C(=S)N1CCN(c2ccccc2)CC1 | > 100 | > 100 | > 100 | > 100 | > 100 | > 100 | > 100 | > 100 | > 100 | – | > 100 | > 100 | > 100 | > 100 |
| COc1ccc2c(c1)OC1c3ccccc3OCC21 (centres undefined) | > 100 | > 100 | > 100 | 93.9 | > 100 | > 100 | > 100 | 81.9 | > 100 | > 100 | > 100 | > 100 | > 100 | – |
| CC1=CC(=O)/C(=C/N2C(=O)CNC2=S)C(=O)O1 | > 100 | > 100 | > 100 | > 100 | > 100 | – | > 100 | > 100 | > 100 | > 100 | – | > 100 | – | – |
| COc1cc(C2SCC(=O)N2NC(=O)c2ccc(NC(C)=O)cc2OC)ccc1O (centres undefined) | > 100 | > 100 | > 100 | > 100 | > 100 | > 100 | – | > 100 | 65.1 | > 100 | 99 | > 100 | > 100 | > 100 |
| COc1ccc2c(c1)C=C(C(C)(C)C)NS2(=O)=O | > 100 | > 100 | – | > 100 | > 100 | > 100 | – | > 100 | > 100 | – | > 100 | > 100 | > 100 | > 100 |
| C(#C[C@@]12CCC[C@@H]1N(Cc1ccccc1)CO2)c1ccc2c(c1)OCO2 | > 100 | > 100 | > 100 | > 100 | – | > 100 | > 100 | > 100 | > 100 | > 100 | > 100 | > 100 | > 100 | – |
| NS(=O)(=O)c1nnc(NC(=O)/C=C/C(=O)O)s1 | > 100 | > 100 | > 100 | > 100 | – | > 100 | > 100 | > 100 | > 100 | – | > 100 | > 100 | > 100 | > 100 |
| CC(C)(C)OC(=O)N1CCC(NC(=O)NC2CCN(C(=O)OC(C)(C)C)CC2)CC1 | > 100 | – | – | > 100 | > 100 | – | > 100 | – | > 100 | > 100 | > 100 | > 100 | > 100 | > 100 |
| CC1(C)/C(=N\Nc2ccc([N+](=O)[O-])cc2[N+](=O)[O-])C2CCC1C2 (centres undefined) | > 100 | > 100 | > 100 | > 100 | > 100 | > 100 | – | > 100 | > 100 | > 100 | > 100 | > 100 | > 100 | > 100 |
| O=C1/C(=C\c2cccc(Oc3ccccc3)c2)SC(c2ccccc2)N1c1cccc(Cl)c1 (centres undefined) | > 100 | > 100 | > 100 | > 100 | – | > 100 | > 100 | > 100 | > 100 | – | > 100 | > 100 | > 100 | – |
| O=C(NNC(=O)c1c(Cl)c(Cl)c(Cl)c(Cl)c1-c1nc2ccccc2[nH]1)c1ccc(Cl)cc1 | > 100 | > 100 | > 100 | > 100 | > 100 | > 100 | – | > 100 | > 100 | > 100 | > 100 | > 100 | > 100 | > 100 |
| COc1ccc(NS(=O)(=O)c2ccc(N=C3C=C(Nc4ccc(S(=O)(=O)Nc5ccc(OC)nn5)cc4)C(=O)c4ccccc43)cc2)nn1 | 31.7 | 32.5 | – | 36.2 | 45.7 | > 100 | – | > 100 | 34.1 | – | 52.9 | 31.4 | 32.6 | 31.8 |
| CCCCCCC(=O)c1ccc2ccccc2c1O | > 100 | > 100 | 92.6 | > 100 | > 100 | > 100 | > 100 | > 100 | – | > 100 | > 100 | > 100 | > 100 | – |
| CS(=O)(=O)CCC(N)P(=O)(O)O (centres undefined) | > 100 | > 100 | > 100 | > 100 | > 100 | > 100 | – | > 100 | > 100 | > 100 | > 100 | > 100 | > 100 | > 100 |
| Cn1c(O)c(C=Nc2ccc(Cl)cc2Cl)c(=O)n(C)c1=O | > 100 | > 100 | – | > 100 | > 100 | > 100 | > 100 | > 100 | > 100 | > 100 | > 100 | – | > 100 | > 100 |
| CCCCC(N)CSSCC(N)CCCC (centres undefined) | 32.8 | > 100 | – | 50.8 | > 100 | 57 | – | 47.9 | 38.1 | – | 61.5 | 34.8 | 41.1 | 29.7 |
| COc1ccc2c(c1)c(=O)c1c(NCCCN(C)C)ccc3ncn2c31 | 14.9 | 18.6 | 18.7 | 8.21 | 21.2 | > 56.1 | – | 13.9 | 25.5 | 15.6 | 16.1 | 26.4 | 28.7 | 21.4 |
| CCOC(=O)c1csc(-c2nc(CCNC(=O)c3ccccc3)sc2Cl)n1 | > 100 | > 100 | > 100 | > 100 | > 100 | > 100 | – | > 100 | > 100 | > 100 | > 100 | > 100 | > 100 | – |
| N[C@@H](Cc1ccc2oc3cc(=O)c4ccccc4c-3nc2c1)C(=O)O | > 100 | 38.9 | 34.7 | 96.8 | > 100 | > 100 | > 100 | > 100 | > 100 | – | > 100 | > 100 | 57.9 | > 100 |
